{"source": "patent US20170065593A1", "about": "“Combination” (Novartis AG, priority 2009, published 2017)", "key": {"95 cancer cell lines": {"test_system": "95 cancer cell lines", "description": "(Compound A) or mTOR inhibitor (mTORi, Rapamycin) alone or a combination of both agents at a ratio of 1:2 (MEKi:mTORi) and cell proliferation/death was measured after 3 day drug exposure. Briefly, cells were plated in 384-well plates at 500 cells/well in culture media appropriate for each cell type, supplemented with 10% FBS and 1% penicillin/streptomycin, and incubated overnight at 37° C., 5% CO2. […] (two fold dilutions ranging from 7.3 uM-0.014 nM) or with mTOR inhibitor (two fold dilutions ranging from 14.6 uM-0.112 nM) or in combination with both compounds and incubated for 72 hours. Cell growth was measured using the CellTiterGlo (CTG) reagent (Promega) according to the manufacturer's protocol. Data were analyzed using the XLfit (IDBS Ltd.) curve-fitting tool for Microsoft Excel. Growth IC50 (gIC50) and Ymin values were generated using a four-parameter curve fit algorithm (XLFit algorithm #205).\nResults were expressed as a percent of the t=0 and plotted against the compound concentration. The T=0 value is normalized to 100% and represents the number of cells at the time of compound addition. […] Formula below was used to calculate mutually exclusive combination index (CI). Data were reported as log CI, where the logarithm value of CI was calculated.\nCI=IC50 of a+b/IC50 of a+IC50 of b+a/IC50 of b\nSynergy is defined as CI<1, additivity as CI=1 and antagonism as CI>1. Considering the variability of these proliferation assays we arbitrarily defined log CI>0.1 as antagonism, between −0.1 and 0.1 as no significant effect and <−0.1 as synergy."}, "[1]": {"test_system": "A549 lung cancer cell line", "assay": "Assay 2: cell growth (CellTiterGlo, 72 hours), Ymin", "format": "cell-based", "conditions": "percent of T=0 (T=0 = 100%)", "description": "FIG. 5 depicts the effect of MEK inhibitor, mTOR inhibitor and their combination on A549 lung cancer cell line growth. […] Cells were treated with MEK inhibitor (two fold dilutions ranging from 7.3 uM-0.014 nM) or with mTOR inhibitor (two fold dilutions ranging from 14.6 uM-0.112 nM) or in combination with both compounds and incubated for 72 hours. Cell growth was measured using the CellTiterGlo (CTG) reagent (Promega) according to the manufacturer's protocol. Data were analyzed using the XLfit (IDBS Ltd.) curve-fitting tool for Microsoft Excel. Growth IC50 (gIC50) and Ymin values were generated using a four-parameter curve fit algorithm (XLFit algorithm #205). Results were expressed as a percent of the t=0 and plotted against the compound concentration. […] Formula below was used to calculate mutually exclusive combination index (CI). Data were reported as log CI, where the logarithm value of CI was calculated. […] Similar analysis was performed for all cell lines and Ymin results are depicted in FIG. 6."}}, "note": "Where two headings read alike, the source gives them in different places.", "data": [{"compound": "CO[C@H]1C[C@@H]2CC[C@@H](C)[C@@](O)(O2)C(=O)C(=O)N2CCCC[C@H]2C(=O)O[C@H]([C@H](C)C[C@@H]2CC[C@@H](O)[C@H](OC)C2)CC(=O)[C@H](C)/C=C(\\C)[C@@H](O)[C@@H](OC)C(=O)[C@H](C)C[C@H](C)/C=C/C=C/C=C/1C", "note": "[Rapamycin]", "values": [{"measurement": "% of cells with cytotoxic response", "setting": "95 cancer cell lines; KRAS WT / PI3K WT cell lines", "value": 10, "unit": "%"}, {"measurement": "% of cells with cytotoxic response", "setting": "95 cancer cell lines; KRAS WT / PI3K mutant cell lines", "value": 5, "unit": "%"}, {"measurement": "% of cells with cytotoxic response", "setting": "95 cancer cell lines; KRAS WT cell lines", "value": 10, "unit": "%"}, {"measurement": "% of cells with cytotoxic response", "setting": "95 cancer cell lines; KRAS mutant / PI3K WT cell lines", "value": 11, "unit": "%"}, {"measurement": "% of cells with cytotoxic response", "setting": "95 cancer cell lines; KRAS mutant / PI3K mutant cell lines", "value": 6, "unit": "%"}, {"measurement": "% of cells with cytotoxic response", "setting": "95 cancer cell lines; KRAS mutant cell lines", "value": 8, "unit": "%"}, {"measurement": "% of cells with cytotoxic response", "setting": "95 cancer cell lines; PI3K WT cell lines", "value": 8, "unit": "%"}, {"measurement": "% of cells with cytotoxic response", "setting": "95 cancer cell lines; PI3K mutant cell lines", "value": 12, "unit": "%"}, {"measurement": "percentage of cell undergoing death (cytotoxic)", "setting": "95 cancer cell lines; all cell lines, Ymin below T=0", "value": 9.5, "unit": "%"}, {"measurement": "cell lines undergoing death", "setting": "95 cancer cell lines; single agent, across KRAS and PI3K mutational subgroups", "value": "≤ 11", "unit": "%"}, {"measurement": "Ymin (lower Y value at any compound concentration)", "setting": "[1]", "value": 487, "unit": "%"}]}]}
